Data set [1] is described as follows: metabolic stability in liver microsomes, species not stated. As to conditions: compared with androst-5-ene-3β,17β-diol. As to the method: The protocol was performed as follows. […] (2) Set up samples as follows. […] (4) The internal standard/acetonitrile solution.
The subject of data set [2] is human T lymphocytes (PBMC). As to the kind of experiment: human mixed lymphocyte reaction (MLR). Type of data set: cell-based. The settings on record: 300 nM or 30 nM. An excerpt: Human mixed lymphocyte reaction (MLR). The capacity of 3β,16α-dihydroxy-17-oxoandrostane, 3β,17β-dihydroxy-16-oxoandrostane, 17α-ethynylandrost-5-ene-3β,7β,17β-triol, and 17β-aminoandrost-5-ene-3β-ol to affect antigen specific stimulation in which human T lymphocytes respond to a specific foreign antigen (major histocompatibility complex).
Blood samples were obtained from 3 (2 males, […]) fasting, healthy human volunteers of 23-31 years old. […] The subjects were bled between 9 and 10 AM to limit possible fluctuations in the circulating levels of hormones or cytokines that could have influenced the in vitro responses of their lymphocytes. Peripheral blood mononuclear cells (PBMC) were isolated by centrifugation on Ficoll-Hypaque (density 1.077, Biochrom AG, Berlin, Germany) gradients and resuspended in culture medium (RPMI 1640 supplemented with 2 mM L-glutamine, penicillin (100 U/mL) and streptomycin ([…]) (Invitrogen s.rl., Milan, Italy). Autologous (responder) inactivated plasma was used at 10%. Five hundred thousand responder PBMC (PBMCr) and 500,000 allogeneic irradiated (30 Gy) stimulator PBMC (PBMCs) were mixed at a ratio of 1:1 in 200 μL medium and cultured for 6 days in flat bottom 96 well plates (Nunc, Roskilde, Denmark) at a concentration of 300 nM or 30 nM for each of the 4 compounds. The compounds were dissolved in ethanol and then diluted to the desired concentration with culture medium leading to a final solution containing 0.01% of ethanol. This vehicle was used as control. Controls also included PBMCr and PBMCs cultured separately. During the last 8 hours of the culture period the PBMC were pulsed with […] [^3H] thymidine (Amersham, Milan, Italy). The cells were then harvested and radioactivity incorporation measured with a beta cell counter. The mean cpm of quadruplicate wells was calculated. Proliferation of T cells was expressed as a stimulation index: SI=cpm (PMBCs xPBMCr)/cpm (PBMCr)+cpm (PBMCs). Statistical analysis was performed using the Student's t test. The cpm obtained from quadruplicate of each test compound were compared to proliferative responses obtained in control PBMCr and PBMCs cultured in the presence of the vehicle. Differences were considered significant at p<0.05.

The subject of data set [3] is lethal amount of bacterial lipopolysaccharide (LPS). As to the kind of experiment: lethal shock protocol. As to conditions: second assay; oral gavage 24 h before and 1 h after LPS. It counts as in vivo, mice. As to the method:
Treatment of lethal inflammation/shock. Two compounds, 16α-bromoepiandrosterone (3β-hydroxy-16α-bromoandrostane-17-one) and 3β,16α-dihydroxy-17-oxoandrostane, were used in a lethal shock protocol. In one protocol, 3 mg of 16α-bromoepiandrosterone was administered to one group of animals by oral gavage, while another group received 3 mg of 16α-bromoepiandrosterone by subcutaneous injection. A group of control animals received a placebo control. In this protocol, the 16α-bromoepiandrosterone was administered to mice at 24 hours before and at 1 hour after administration of a lethal amount of bacterial lipopolysaccharide (LPS). By the end of the observation period, 72 hours after LPS administration, none of the vehicle treated placebo control animals had survived, while 65% of animals that received 16α-bromoepiandrosterone by oral administration survived. 50% of the animals that received 16α-bromoepiandrosterone by subcutaneous injection survived. Animals that survived for 72 hours all recovered from the LPS exposure.
In a second assay, 16α-bromoepiandrosterone or 3β,16α-dihydroxy-17-oxoandrostane was administered to mice by oral gavage at 24 hours before and 1 hour after administration of a lethal amount of LPS. A vehicle treated group of animals was used as the placebo control.

Another data set deals with human whole blood. As to the kind of experiment: γ-interferon production in human whole blood exposed to LPS. The settings on record: 24 hours with LPS; 16α-bromoepiandrosterone at 100 ng/mL. It counts as cell-based. As to the method: Anti-inflammation activity in human cells in vitro. […] The amount of γ-interferon was measured in the growth medium when the cells had been incubated in the presence of LPS for 24 hours.

Data set [4] relates to carrageenan-λ induced pleurisy. Briefly: carrageenan-λ induced lung (pleural cavity) inflammation. The settings on record: for number of neutrophils relative to negative control group (set at 100%): exudate 4 h after. Type of data set: in vivo, CD1 male mice. An excerpt: Treatment of lung inflammation. Three compounds, 3β,16α-dihydroxy-17-oxoandrostane, 3α,16β,17β-trihydroxyandrostane and 3α,16α,17α-trihydroxyandrostane were used to treat inflammation in mice essentially as described (D. Auci et al., Ann. New York Acad. Sci. 1051:730-742 2005). Five to 8 week old CD1 male mice (Charles River, Calco, Italy) were used for the study. The animals were housed in a controlled environment and provided with standard rodent chow and water. Animal care was in compliance with applicable regulations on protection of animals. Mice were allocated into one of the following groups: (1) mice treated with 2% carrageenan-k in saline (carrageenan-λ treated control group), (2) mice treated with 0.1 mg, 0.01 mg or 0.001 mg 3β,16α-dihydroxy-17-oxoandrostane by subcutaneous (s.c.) injection 24 h and 1 h before carrageenan-λ administration, (3) mice treated with 0.1 mg, 0.01 mg or 0.001 mg of 3α,16α,17α-trihydroxyandrostane by s.c. injection 24 and 1 h before carrageenan; (4) mice treated with 0.1 mg, 0.01 mg or 0.001 mg […],16β,17β-trihydroxyandrostane by s.c. injection 24 h and 1 h before carrageenan-λ administration; (5) mice treated with vehicle (0.1% carboxymethylcellulose, 0.9% saline, 2% tween 80, 0.05% phenol) s.c. 24 h and 1 h before carrageenan-λ administration; (6) mice treated with rabbit anti-mouse polyclonal anti-TNF-α antibody (200 μg) given as an intraperitoneal bolus 24 h and 1 h before carrageenan-λ administration (positive control group); and (7) sham-operated mice that were not treated with carrageenan-λ. Each group consisted of 10 mice. All treatments were given in a final volume of 100 μL. Lung (pleural cavity) inflammation was induced as follows. The mice were anaesthetised with isoflurane and a skin incision was made at the level of the left sixth intercostal space. The underlying muscle was dissected and either 0.1 mL saline (control) or 0.1 mL saline containing 2% λ-carrageenan was injected into the pleural cavity. The carrageenan-λ is a potent inducer of inflammation, which is manifested in this protocol by accumulation of fluid and neutrophils in the pleural cavity. The incision was closed with a suture and the animals were allowed to recover.
At 4 h after the injection of carrageenan-λ, the animals were euthanized by exposure to CO2. The chest was carefully opened and the pleural cavity rinsed with 1 mL of saline solution containing heparin (5 U/mL) and indomethacin (10 μg/mL). The exudate and washing solution were removed by aspiration and the total volume measured. Any exudate contaminated with blood was discarded. The amount of exudate was calculated by subtracting the injected 1 mL volume from the total pleural cavity volume that was recovered. The neutrophils in the exudate were suspended in phosphate-buffer saline and counted with an optical microscope in a Burker's chamber after Trypan Blue staining. The results were analysed by one-way ANOVA followed by a Bonferroni post-hoc test for multiple comparisons. A p-value less than 0.05 was considered significant. For statistical analysis each group was compared to the control group of mice that were challenged with carrageenan-k and received no other treatment.
The table below describes the number of neutrophils from the treated animal groups relative to untreated control animals that were exposed to carrageenan-λ, but not treated with anything else (negative control group). The neutrophil number for the negative control group was set at 100% and other groups were compared to this.

Data set [5] deals with bone loss after thermal injury. As to the kind of experiment: bone loss in thermally-injured mice. Type of data set: in vivo. As to conditions: 20% total body surface area thermal injury. An excerpt: In bone loss conditions, 5-androstene-3β,7β,17β-triol affected the principal bone structures, i.e., cortical and trabecular layers and the growth plate. […] We observed partial protection against loss of bone mineral content as measured by dual X-ray absorptiometry.

For another data set, the system named is MG-63 cells. As to the kind of experiment: pilot studies of dexamethasone in MG-63 cells. It counts as cell-based. As to conditions: Homo sapiens. An excerpt:
The capacity of compounds including 5-androstene-3β,7β,17β-triol, 17α-ethynyl-5-androstene-3β,7β,17β-triol and 4-estrene-3α,17β-diol to reverse adverse effects of glucocorticoids in bone growth was shown in the human MG-63 osteosarcoma cell line. MG-63 cells are osteoblasts, which are cells that mediate bone growth. Theis cell line has been used extensively to study bone biology and to characterize the biological activity of compounds for treatment of bone loss conditions (e.g., B. D. Boyan et al., J. Biol. Chem., 264(20):11879-11886, 1989; L. C. Hofbauer et al., Endocrinology, 140(10):4382-4389, 1999). Adverse toxicities associated with elevated glucocorticoid levels include a decrease in the production of IL-6 and IL-8 by osteoblasts, including the MG-63 cell line, and an increase in the expression of the 11β-hydroxysteroid dehydrogenase type 1 enzyme (11β-HSD). Increased 11β-hydroxysteroid dehydrogenase type 1 enzyme results in increased levels of endogenous glucocorticoid activity by converting endogenous cortisone to the active cortisol, which inhibits bone growth. The 11β-HSD enzyme is expressed in liver, adipose tissue, brain and bone tissues. Cortisol generated by 11β-HSD-1 contributes to osteoporosis, insulin resistance, type 2 diabetes, dyslipidemia, obesity, central nervous system disorders such as stroke, neuron death, depression and Parkinson Disease. […]

For another data set, the system named is NF-κB. As to the kind of experiment: inhibition of NF-κB activation in NF-κB-bla THP-1 cells after LPS stimulation. As to conditions: Homo sapiens, THP-1; LPS stimulation; 50% of the compound's maximum inhibition; averages; read-out: IC50. It counts as cell-based, human. The gist of the method:
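THP-1 monocytes stably carrying an NF-κB response element–driven β-lactamase reporter, plated about 24 h before activation with LPS at 0.2 ng/mL. Reporter activity measured by FRET ratiometric detection; values are averages of usually 2-4 runs per compound.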

Data set [6] relates to popliteal lymph node cells. As to the kind of experiment: reporter antigen popliteal lymph node (PLN) assay. As to conditions: compound 1.0 and 0.1 mg/day; dexamethasone 5 μg/day. It counts as in vivo, BALB/C mice. An excerpt: Analysis of immune suppression. Glucocorticoid steroids such as dexamethasone or hydrocortisone are typically immune suppressive and have significant toxicities associated with their use. Immune suppression was examined in a reporter antigen popliteal lymph node assay in mice essentially as previously described (C. Goebel et al., Inflamm. Res., 45(Suppl. 2):S85-S90, 1996; R. Pieters et al., Environmental Health Perspectives 107(Suppl. 5):673-677, 1999). […] In this protocol, the vehicle was 0.1% carboxymethylcellulose, 0.9% saline, 2% tween 80 and 0.05% phenol, which contained 17α-ethynylandrost-5-ene-3β,7β,17β-triol in suspension in drug treated animals. Assessment of activity included (1) measuring suppression of numbers of total lymphocytes, antigen specific IgM, IgG1 and IgG2a antibody secreting cells (ASC) (ELISPOT assay) in popliteal lymph node cells; (2) analysis of cell surface marker (CD4, CD8, CD19, F480, CD80, CD86) expression by flow cytometry of living cells in suspension; and (3) IL-4, TNFα and IFNγ production by lymphocytes in vitro (ELISA).
Groups (n=5 per group) of specific pathogen free BALB/C mice were used. The Positive control group was treated with vehicle (oral gavage) and 5 μg/day dexamethasone by subcutaneous injection to induce immune suppression. Vehicle control animals (negative control) were treated with vehicle alone (oral gavage). One group of animals was treated with 17α-ethynylandrost-5-ene-3β,7β,17β-triol at 0.1 mg/day by oral gavage. Another group was treated with 1 mg/day of 17α-ethynylandrost-5-ene-3β,7β,17β-triol was administered to the animals oral gavage. The results were analyzed by two-tailed Student's t-test with equal variance. The animals were injected in the right hind footpad with 50 μL of freshly prepared sensitizing dose of TNP-OVA. […] Single cell suspensions were prepared, resuspended in 1 mL PBS-BSA (1%) and counted. Cell numbers, IL-4, IL-5 and IFNγ were measured.

Like-named read-outs stand apart in the source and are kept apart here.

Consider `C[C@]12CC[C@H](O)CC1CC[C@@H]1[C@@H]2CC[C@]2(C)C(=O)[C@H](O)C[C@@H]12` (stereo partly drawn) [3β,16α-dihydroxy-17-oxoandrostane], for which the “rate of metabolism by microsomes” value in data set [1] is on record as “metabolized by microsomes at a rate similar to the androst-5-ene-3β,17β-diol reference compound”. Moreover, in data set [2], the “immune suppression (inhibition of the MLR)” value is given as “not appreciably immune suppressive”. In data set [3], the “survival 72 hours after LPS” value worked out at 50%. Further, the “production of γ-interferon” value in the data set with human whole blood is on record as “Reduced production”. The “number of neutrophils relative to negative control group (set at 100%)” value in [4] (0.001 mg s.c. 24 h and 1 h before carrageenan-λ) was 97%; in data set [4] (0.01 mg s.c. 24 h and 1 h before carrageenan-λ), 73%; in [4] (0.1 mg s.c. 24 h and 1 h before carrageenan-λ) it was 73%. Besides, the “volume of pleural exudate” value in data set [4] (0.1 mg dose s.c.) is “significantly reduced”. The “potency compared with polyclonal anti-TNF-α antibody control” value in [4] (s.c.) is “less potent”.
Regarding `C[C@]12CC[C@H]3[C@@H]([C@@H](O)C=C4C[C@@H](O)CC[C@@]43C)[C@@H]1CC[C@@H]2O` [androst-5-ene-3β,7β,17β-triol], in data set [5], the “femur ash weight vs vehicle-treated burned mice” value was “significantly (p<0.01) greater”; the “loss of cortical and trabecular bone mass and suppression of chondrocyte proliferation” value was “significantly (p<0.01) prevented”.
As for `C[C@@H]1C[C@H]2[C@@H]3CCC4=CC(=O)C=C[C@]4(C)[C@@]3(F)[C@@H](O)C[C@]2(C)[C@@]1(O)C(=O)CO` [dexamethasone, reference compound], the concentration for half-maximal inhibition (IC50) was found to be 10 nM in the data set with MG-63 cells (read-out: IC50 for inhibition of IL-6 from MG-63 cells), 15.3 nM in the data set on MG-63 cells (read-out: IC50 for inhibition of growth of MG-63 cells) and 0.47 nM in the data set with NF-κB. Further, the “IFNγ, IL-4 and IL-5 levels compared to vehicle control” value in data set [6] is recorded as “reduced”.

(Values after patent US20080221074A1, “Drug Screen and Treatment Method” (priority 2006, published 2008).)
